Assay results taken from ChEMBL document CHEMBL5726965, “Heterocyclic compounds as LSD1 inhibitors” (2018).

What follows are compounds tested against Lysine-specific histone demethylase 1A (Homo sapiens, UniProt O60341) (assay: Biochemical Assay: LANCE LSD1/KDM1A demethylase assay-10 μL of 1 nM LSD-1 enzyme (ENZO BML-SE544-0050) in the assay buffer (50 mM Tris, pH 7.5, 0.01% Tween-20, 25 mM NaCl, 5 mM DTT) were preincubated for 1 hour at 25° C. with 0.8 μL compound/DMSO dotted in black 384 well polystyrene plates. Reactions were started by addition of 10 μL of assay buffer containing 0.4 μM Biotin-labeled Histone H3 peptide substrate: ART-K(Mel)-QTARKSTGGKAPRKQLA-GGK(Biotin) SEQ ID NO: 1 (AnaSpec 64355) and incubated for 1 hour at 25° C. Reactions were stopped by addition of 10 μL 1×LANCE Detection Buffer (PerkinElmer CR97-100) supplemented with 1.5 nM Eu-anti-unmodified H3K4 Antibody (PerkinElmer TRF0404), and 225 nM LANCE Ultra Streptavidin (PerkinElmer TRF102) along with 0.9 mM Tranylcypromine-HCl (Millipore 616431). After stopping the reactions plates were incubated for 30 minutes and read on a PHERAstar FS plate reader (BMG Labtech).).
COC(=O)N(C)c1ccc(-c2c(-c3ccc(C#N)cc3)nc(N3CCC(N(C)C)CC3)n3ccnc23)cc1F was tested, and the IC50 was less than 0.05 µM. Compound COC(=O)N(C)c1cc(-c2c(-c3ccc(C#N)cc3)nc(OC[C@@H]3CCCN(C)C3)n3ccnc23)ccc1C has an IC50 of less than 0.05 µM. COC(=O)N(C)c1ccc(-c2c(-c3ccc(C#N)cc3)nc(N3CCC(N(C)C)CC3)n3ccnc23)cc1 was tested, and the IC50 was less than 0.05 µM.
